The data set is described as follows: Corneal permeation experiment in Ussing chamber. Type of data set: in vitro ADME. Particulars: pig cornea, 37° C., after 18 hours. Here is the method:
The corneal permeation experiment was conducted with reference to the contents of “Lee et. al, “Modulating the Transport Characteristics of Bruch's Membrane With Steroidal Glycosides and its Relevance to Age-Related Macular Degeneration (AMD). Invest. Ophthalmol. Vis. Sci. 2015, 56, 8403, 2015,” which is an already published paper. […] Basically, the drug is put into the donor chamber of the Ussing chamber, the corneal part of the pig eye is collected in a circular shape of 8 mm in size, and other tissues attached to the cornea were removed, and then fixed in place of the membrane, and the solution permeating the membrane was received in the receiving chamber, and at this time, it was placed in a constant temperature chamber in which the temperature at which diffusion occurs was adjusted to 37° C., which is close to human body temperature, and stored. After a certain amount of time passed, the diffusion properties of each sample could be identified by measuring the concentration of the solution in each donor chamber and receiving chamber. For the concentration, UV/VIS spectrum (Evolution201 UV/Vis; Thermo) was used, and the concentration was measured using a peak height at 420 nm.

The values below come from patent US20240285652A1, “AMORPHOUS NANO-MOLECULAR AGGREGATE COMPOSED OF ORGANIC MATERIAL, INORGANIC MATERIAL, OR SALT THEREOF, AND METHOD FOR PREPARING SAME” (SCAI THERAPEUTICS CO., LTD., priority 2021, published 2024).

For `CCN(CC)CCNC(=O)c1c(C)[nH]c(/C=C2\C(=O)Nc3ccc(F)cc32)c1C` [Comparative Example 2, sunitinib-malate], the “Drug in corneal tissue (μg, Mean ± SD)” value is 65.7 ± 7.5 µg; the “Drug in receiver (μg, Mean ± SD)” value came out at 8.8 ± 5.8 µg; the “Transport percentage* (%, Mean ± SD)” value came to 1.6 ± 1.1%.
